Laboratory results from ChEMBL document CHEMBL1201862, “PubChem BioAssay data set” (2004).
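Cultured in 96-well plates, cells were exposed to test compound for 48 hours across five concentrations. GI50 is the concentration that inhibits growth by half.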 Activity calls are given as the source filed them. No stated cut-off is given here; in the data, active = GI50 up to about 1.1 µM and inactive = higher.

What was measured:
Assay in all cases: NCI-60 cell line screen, 48 h
PC-3 = system: PC-3
A498 = system: A498
UO-31 = system: UO-31
DU-145 = system: DU-145
U-251 = system: U-251
786-0 = system: 786-0
SF-295 = system: SF-295
MDA-N = system: MDA-N
MOLT-4 = system: MOLT-4
SNB-75 = system: SNB-75
SW-620 = system: SW-620
A549 = system: A549
CCRF-CEM = system: CCRF-CEM
HOP-92 = system: HOP-92
MDA-MB-435 = system: MDA-MB-435
Malme-3M = system: Malme-3M
SF-539 = system: SF-539
HCC 2998 = system: HCC 2998
NCI-H460 = system: NCI-H460

Compound	GI50 (PC-3)	GI50 (A498)	GI50 (UO-31)	GI50 (DU-145)	GI50 (U-251)	GI50 (786-0)	GI50 (SF-295)	GI50 (MDA-N)	GI50 (MOLT-4)	GI50 (SNB-75)	GI50 (SW-620)	GI50 (A549)	GI50 (CCRF-CEM)	GI50 (HOP-92)	GI50 (MDA-MB-435)	GI50 (Malme-3M)	GI50 (SF-539)	GI50 (HCC 2998)	GI50 (NCI-H460)
CC1(c2ccc(Cl)cc2)c2ccccc2C(=O)N1CCCN1C(=O)c2ccccc2C1=O (configuration not stated)	83 µM (inactive)	> 100 µM (inactive)	39.9 µM (inactive)	40.3 µM (inactive)	52.8 µM (inactive)	26.2 µM (inactive)	24.2 µM (inactive)	58.7 µM (inactive)	29.5 µM (inactive)	58.9 µM (inactive)	56.8 µM (inactive)	24.7 µM (inactive)	45.1 µM (inactive)	73.6 µM (inactive)	33.3 µM (inactive)				
Cc1ccc(C2=NOC(=O)[C@@H]3CCCC[C@@H]23)cc1	> 100 µM (inactive)	> 100 µM (inactive)	> 100 µM (inactive)	27.2 µM (inactive)	> 100 µM (inactive)	> 100 µM (inactive)	> 100 µM (inactive)	> 100 µM (inactive)	> 100 µM (inactive)	> 100 µM (inactive)	> 100 µM (inactive)	> 10 µM (inactive)	> 100 µM (inactive)		> 100 µM (inactive)	> 100 µM (inactive)	> 100 µM (inactive)	> 100 µM (inactive)	
c1ccc(-c2c(-c3[nH]c4ccccc4c3-c3ccccc3)[nH]c3ccccc23)cc1	3.6 µM (inactive)		3.68 µM (inactive)	3.38 µM (inactive)	4.52 µM (inactive)	2.07 µM (inactive)	4.18 µM (inactive)	2.74 µM (inactive)	3.35 µM (inactive)	4.15 µM (inactive)	3.34 µM (inactive)	3.5 µM (inactive)	3.4 µM (inactive)	3.21 µM (inactive)	3.44 µM (inactive)	13.7 µM (inactive)	7.96 µM (inactive)	1.82 µM (inactive)	2.95 µM (inactive)
O=C1c2cc(Cl)ccc2-n2c(noc2=O)C2CSCN12 (configuration not stated)	> 100 µM (inactive)	> 100 µM (inactive)	> 100 µM (inactive)	> 100 µM (inactive)	> 100 µM (inactive)	> 100 µM (inactive)	> 100 µM (inactive)	> 100 µM (inactive)	> 100 µM (inactive)	> 100 µM (inactive)	> 100 µM (inactive)	> 100 µM (inactive)	> 100 µM (inactive)		> 100 µM (inactive)	> 100 µM (inactive)		> 100 µM (inactive)	> 100 µM (inactive)
[N-]=[N+]=NC1(c2ccccc2)C(=O)c2cccc3c4ccccc4n(c23)C1=O (configuration not stated)	> 100 µM (inactive)	> 100 µM (inactive)	> 100 µM (inactive)	> 100 µM (inactive)	> 100 µM (inactive)	> 100 µM (inactive)	57.8 µM (inactive)	34.4 µM (inactive)	98.4 µM (inactive)	> 100 µM (inactive)	> 100 µM (inactive)	76.2 µM (inactive)	64.3 µM (inactive)		27.9 µM (inactive)	> 100 µM (inactive)	> 100 µM (inactive)	> 100 µM (inactive)	> 100 µM (inactive)
NC(=O)Cn1c(=O)oc2cc(C(=O)CN3CCOCC3)ccc21	> 100 µM (inactive)	> 100 µM (inactive)		> 100 µM (inactive)	> 100 µM (inactive)	> 100 µM (inactive)	> 100 µM (inactive)	> 100 µM (inactive)	> 100 µM (inactive)	18.5 µM (inactive)	> 100 µM (inactive)		> 100 µM (inactive)		> 100 µM (inactive)	> 100 µM (inactive)	> 100 µM (inactive)		
C=CC(C)(C)c1cc([C@@H]2COc3cc(O)ccc3C2=O)c(O)c(O)c1OC	18.7 µM (inactive)		15.9 µM (inactive)	20.7 µM (inactive)	20.2 µM (inactive)	14.3 µM (inactive)	39.4 µM (inactive)	22.2 µM (inactive)	25.7 µM (inactive)	27.4 µM (inactive)	26.7 µM (inactive)	33.7 µM (inactive)	41.7 µM (inactive)	18.8 µM (inactive)	19.3 µM (inactive)	30.5 µM (inactive)	24.9 µM (inactive)	61.8 µM (inactive)	66.4 µM (inactive)
O=C1CCC2(c3ccc(Cl)cc3)Nc3ncncc3N12 (configuration not stated)	> 10 µM (inactive)		> 10 µM (inactive)	> 10 µM (inactive)	> 10 µM (inactive)	> 10 µM (inactive)	> 10 µM (inactive)	> 10 µM (inactive)	> 10 µM (inactive)	> 10 µM (inactive)	> 10 µM (inactive)	> 10 µM (inactive)	> 10 µM (inactive)	> 10 µM (inactive)	> 10 µM (inactive)	> 10 µM (inactive)	> 10 µM (inactive)	> 10 µM (inactive)	> 10 µM (inactive)
NNC(=S)NCCNC(=S)NN	> 100 µM (inactive)		> 100 µM (inactive)	> 100 µM (inactive)	> 100 µM (inactive)	> 100 µM (inactive)	> 100 µM (inactive)	> 100 µM (inactive)	> 100 µM (inactive)	> 100 µM (inactive)	> 100 µM (inactive)	> 100 µM (inactive)	> 100 µM (inactive)		> 100 µM (inactive)	> 100 µM (inactive)		> 100 µM (inactive)	> 100 µM (inactive)
CC(C)OP(=O)(c1ccccc1)c1ccc2c(c1)OCCOCCOCCOCCO2 (configuration not stated)	> 100 µM (inactive)	> 100 µM (inactive)	> 100 µM (inactive)	> 100 µM (inactive)		> 100 µM (inactive)	> 100 µM (inactive)	> 100 µM (inactive)	> 100 µM (inactive)	> 100 µM (inactive)	> 100 µM (inactive)	> 100 µM (inactive)	> 100 µM (inactive)		> 100 µM (inactive)	> 100 µM (inactive)	> 100 µM (inactive)	> 100 µM (inactive)	> 100 µM (inactive)
O=C(O)c1ccccc1CC1Cc2ccc3c(c2C1=O)CCC3 (configuration not stated)	> 100 µM (inactive)		> 100 µM (inactive)	> 100 µM (inactive)	> 100 µM (inactive)	> 100 µM (inactive)	> 100 µM (inactive)	> 100 µM (inactive)	> 100 µM (inactive)	87.1 µM (inactive)	> 100 µM (inactive)	> 100 µM (inactive)	> 100 µM (inactive)	> 100 µM (inactive)	> 100 µM (inactive)	> 100 µM (inactive)	> 100 µM (inactive)	> 100 µM (inactive)	> 100 µM (inactive)
COc1cc(-c2nc3cc(F)ccc3s2)ccc1O	49 µM (inactive)	18.5 µM (inactive)	34.8 µM (inactive)	82.8 µM (inactive)	54.1 µM (inactive)	37.1 µM (inactive)	43.7 µM (inactive)	99.3 µM (inactive)	56.8 µM (inactive)		> 100 µM (inactive)	67.5 µM (inactive)	28.8 µM (inactive)		> 100 µM (inactive)	78.9 µM (inactive)	49.4 µM (inactive)	0.0622 µM (active)	70.5 µM (inactive)
Nc1ccn(C2CC3OCC3O2)c(=O)n1 (configuration not stated)	> 100 µM (inactive)	> 100 µM (inactive)	> 100 µM (inactive)	> 100 µM (inactive)	> 100 µM (inactive)	> 100 µM (inactive)	> 100 µM (inactive)	> 100 µM (inactive)	> 100 µM (inactive)	> 100 µM (inactive)	> 100 µM (inactive)	> 100 µM (inactive)	> 100 µM (inactive)		> 100 µM (inactive)		> 100 µM (inactive)		> 100 µM (inactive)
CSCC[C@H]1C(=O)N=C(N)N1C(=O)OCc1ccccc1	50.4 µM (inactive)	72.9 µM (inactive)	30.8 µM (inactive)	> 100 µM (inactive)	34.9 µM (inactive)	26.2 µM (inactive)	61.7 µM (inactive)	28.9 µM (inactive)	18.7 µM (inactive)	60.7 µM (inactive)	17.1 µM (inactive)				34 µM (inactive)	33.3 µM (inactive)		95.9 µM (inactive)	41 µM (inactive)
O=C1/C(=C/c2ccc(Cl)cc2)Oc2cc(O)ccc21 [6-HYDROXY-4'-CHLORO AURONE]	30.2 µM (inactive)		20.5 µM (inactive)	41.4 µM (inactive)	26.5 µM (inactive)	33.3 µM (inactive)	38.4 µM (inactive)	30.2 µM (inactive)	19.6 µM (inactive)	31.6 µM (inactive)	44.6 µM (inactive)	30.1 µM (inactive)	20.2 µM (inactive)		36.1 µM (inactive)		21.9 µM (inactive)	39.3 µM (inactive)	25.1 µM (inactive)
CC1(C)CC(O)CC(C)(C)N1O [TEMPOL HYDROXYLAMINE]	> 100 µM (inactive)	> 100 µM (inactive)	> 100 µM (inactive)	> 100 µM (inactive)		> 100 µM (inactive)	> 100 µM (inactive)	> 100 µM (inactive)	> 100 µM (inactive)	> 100 µM (inactive)	> 100 µM (inactive)	> 100 µM (inactive)	> 100 µM (inactive)		> 100 µM (inactive)	> 100 µM (inactive)	> 100 µM (inactive)	> 100 µM (inactive)	> 100 µM (inactive)
